What was measured:
[1] = target: Cannabinoid receptor 2 (Homo sapiens, UniProt P34972); experiment: (§1) cAMP Assay: CHO cells expressing human CB1 or CB2 receptors are seeded 17-24 hours prior to the experiment 50.000 cells per well in a black 96 well plate with flat clear bottom (Corning Costar #3904) in DMEM (Invitrogen No. 31331), 1×HT supplement, with 10% fetal calf serum and incubated at 5% CO2 and 37° C. in a humidified incubator. The growth medium was exchanged with Krebs Ringer Bicarbonate buffer with 1 mM IBMX and incubated at 30° C. for 30 min. Compounds were added to a final assay volume of 100 μl and incubated for 30 min at 30° C. Using the cAMP-Nano-TRF detection kit the assay (Roche Diagnostics) was stopped by the addition of 50 μl lysis reagent (Tris, NaCl, 1.5% Triton X100, 2.5% NP40, 10% NaN3) and 50 μl detection solutions (20 μM mAb Alexa700-cAMP 1:1, and 48 μM Ruthenium-2-AHA-cAMP) and shaken for 2 h at room temperature. The time-resolved energy transfer is measured by a TRF reader (Evotec Technologies GmbH), equipped with a ND:YAG laser as excitation source. The plate is measured twice with the excitation at 355 nm and at the emission with a delay of 100 ns and a gate of 100 ns, total exposure time 10s at 730 (bandwidth 30 nm) or 645 nm (bandwidth 75 nm), respectively.; type: functional, cell-based
Cannabinoid receptor 2, sequence (P34972 whole entry): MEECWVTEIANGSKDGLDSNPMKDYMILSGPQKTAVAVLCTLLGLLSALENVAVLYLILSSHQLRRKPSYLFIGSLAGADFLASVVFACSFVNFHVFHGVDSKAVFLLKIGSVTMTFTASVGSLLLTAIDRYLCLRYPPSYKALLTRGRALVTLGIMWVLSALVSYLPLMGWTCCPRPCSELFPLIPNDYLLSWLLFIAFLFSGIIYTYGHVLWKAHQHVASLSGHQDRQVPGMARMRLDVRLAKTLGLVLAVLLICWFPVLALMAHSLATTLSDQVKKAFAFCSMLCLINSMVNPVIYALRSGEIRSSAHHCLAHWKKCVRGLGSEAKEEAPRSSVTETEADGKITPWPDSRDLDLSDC

[2] = target: Cannabinoid receptor 1 (Homo sapiens, UniProt P21554); experiment: as §1; type: functional, cell-based
Cannabinoid receptor 1, sequence (P21554 whole entry): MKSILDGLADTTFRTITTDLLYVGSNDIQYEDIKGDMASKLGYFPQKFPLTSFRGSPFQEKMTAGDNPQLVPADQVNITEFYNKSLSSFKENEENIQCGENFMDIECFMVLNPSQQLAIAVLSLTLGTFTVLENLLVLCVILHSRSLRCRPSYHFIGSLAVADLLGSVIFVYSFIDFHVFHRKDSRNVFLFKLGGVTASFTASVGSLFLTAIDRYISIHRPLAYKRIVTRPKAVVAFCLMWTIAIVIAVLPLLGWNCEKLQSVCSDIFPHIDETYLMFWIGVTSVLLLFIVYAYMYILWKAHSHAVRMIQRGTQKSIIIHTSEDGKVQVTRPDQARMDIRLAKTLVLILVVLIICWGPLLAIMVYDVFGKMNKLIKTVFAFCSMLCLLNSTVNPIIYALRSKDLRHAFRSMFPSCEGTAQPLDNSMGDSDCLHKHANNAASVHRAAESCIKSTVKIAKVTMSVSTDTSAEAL

## O=C(NN1CCCCC1)c1cnc(C2CC2)c(OCC2CC2)n1
[1]
  EC50: 327 nM
[2]
  EC50: > 10000 nM

## CC(C)(CCc1ccncc1)NC(=O)c1cnc(C2CC2)c(OCC2CC2)n1
[1]
  EC50: 280 nM

## CC(C)(O)[C@H](CC1CC1)NC(=O)c1cnc(C2CC2)c(OCC2CC2)n1
[1]
  EC50: 198 nM
[2]
  EC50: > 10000 nM

## CNC(=O)C(CC1CCC1)NC(=O)c1cnc(N2CC(F)(F)C2)c(OCC2CC2)n1 (centres undefined)
[1]
  EC50: 51.7 nM
[2]
  EC50: > 10000 nM

## O=C(NC1(CO)CCCCC1)c1cnc(N2CC(F)(F)C2)c(OCC2CC2)n1
[1]
  EC50: 1.8 nM
[2]
  EC50: > 10000 nM
